Reference: EP0338372A2, “Solubilized pro-drugs” (AMERICAN CYANAMID COMPANY, priority 1988, dated 1989)

Test system: lymphocytic leukemia P388
Experiment: Lymphocytic leukemia P388 test
Type: in vivo, BDF1 mice
[1] = Dose 12.5 mg/kg intraperitoneally on days 1, 5 and 9
[2] = Dose 50 mg/kg intraperitoneally on days 1, 5 and 9
[3] = Dose 200 mg/kg intraperitoneally on days 1, 5 and 9
[4] = Dose 25 mg/kg intraperitoneally on days 1, 5 and 9
[5] = Dose 100 mg/kg intraperitoneally on days 1, 5 and 9
[6] = Dose 3.12 mg/kg intraperitoneally on days 1, 5 and 9
[7] = Dose 6.25 mg/kg intraperitoneally on days 1, 5 and 9
[8] = Dose 12.25 mg/kg intraperitoneally on days 1, 5 and 9

Compound: O=CN1CCN=C1N(C=O)N=Cc1c2ccccc2c(C=NN(C=O)C2=NCCN2C=O)c2ccccc12 [2,2'-[9,10-Anthracenediylbis[methylidyne(1-formyl-1-hydrazinyl-2-ylidene)]]bis[4,5-dihydro-1H-imidazole-1-carboxaldehyde]]
- Median Survival [1]: 10.5 days
- T/C x 100 % [1]: 105%
- Median Survival [2]: 11 days
- T/C x 100 % [2]: 110%
- Median Survival [3]: 11.5 days
- T/C x 100 % [3]: 115%

Compound: COc1ccc(C(=O)N2CCN=C2N(N=Cc2c3ccccc3c(C=NN(C(=O)c3ccc(OC)cc3)C3=NCCN3C(=O)c3ccc(OC)cc3)c3ccccc23)C(=O)c2ccc(OC)cc2)cc1 [2,2'-(9,10-Anthracenediyldimethylidyne)bis[1-[4,5-dihydro-1-(4-methoxybenzoyl)-1H-imidazol-2-yl] hydrazide] of 4-methoxybenzoic acid]
- Median Survival [3]: 16 days
- T/C x 100 % [3]: 139%

Compound: [2-[[[10-[((4,5-Dihydro-1H-imidazol-2-yl)ethylhydrazono]methyl]-9-anthracenyl]methylene] hydrazino]-4,5-dihydro-1H-imidazol-1-yl]phosphonic Acid, Hydroiodide
- Median Survival (mouse, in vivo, ip, 0.4 mg/kg): 18 days
- T/C x 100 % (mouse, in vivo, ip, 0.4 mg/kg): 164%
- Median Survival (mouse, in vivo, ip, 0.8 mg/kg): 21.5 days
- T/C x 100 % (mouse, in vivo, ip, 0.8 mg/kg): 195%
- Median Survival (mouse, in vivo, ip, 1.6 mg/kg): 18 days
- T/C x 100 % (mouse, in vivo, ip, 1.6 mg/kg): 164%
- Median Survival (mouse, in vivo, ip, 3.2 mg/kg): 22.5 days
- T/C x 100 % (mouse, in vivo, ip, 3.2 mg/kg): 205%
- Median Survival (mouse, in vivo, ip, 6.3 mg/kg): 24 days
- T/C x 100 % (mouse, in vivo, ip, 6.3 mg/kg): 218%
- Median Survival (mouse, in vivo, ip, 12.5 mg/kg): 25 days
- T/C x 100 % (mouse, in vivo, ip, 12.5 mg/kg): 227%
- Median Survival (mouse, in vivo, ip, 25 mg/kg): 25 days
- T/C x 100 % (mouse, in vivo, ip, 25 mg/kg): 227%
- Median Survival (mouse, in vivo, ip, 50 mg/kg): 25.5 days
- T/C x 100 % (mouse, in vivo, ip, 50 mg/kg): 232%

Compound: O=C(c1ccccc1F)N1CCN=C1N(N=Cc1c2ccccc2c(C=NN(C(=O)c2ccccc2F)C2=NCCN2C(=O)c2ccccc2F)c2ccccc12)C(=O)c1ccccc1F [2,2'-(9,10-Anthracenediyldimethylidyne)bis[1-[1-(2-fluorobenzoyl)-4,5-dihydro-1H-imidazol-2-yl] hydrazide] of 2-fluorobenzoic acid]
- Median Survival [4]: 12 days
- T/C x 100 % [4]: 109%
- Median Survival [2]: 13 days
- T/C x 100 % [2]: 118%
- Median Survival [5]: 13 days
- T/C x 100 % [5]: 118%
- Median Survival [3]: 12 days
- T/C x 100 % [3]: 109%

Compound: COCC(=O)N1CCN=C1N(N=Cc1c2ccccc2c(C=NN(C(=O)COC)C2=NCCN2C(=O)COC)c2ccccc12)C(=O)COC [2,2-(9,10-Anthracenediyldimethylidyne)bis[1-[4,5-dihydro-1-(methoxyacetyl)-1H-imidazo)-2-yl]hydrazide] of Methoxyacetic Acid]
- Median Survival [6]: 14.5 days
- T/C x 100 % [6]: 132%
- Median Survival [1]: 16.5 days
- T/C x 100 % [1]: 150%
- Median Survival [2]: 16.5 days
- T/C x 100 % [2]: 150%
- Median Survival [3]: 16.5 days
- T/C x 100 % [3]: 150%

Compound: O=C(O)C1CCCCC1C(=O)N1CCN=C1NN=Cc1c2ccccc2c(C=NNC2=NCCN2C(=O)C2CCCCC2C(=O)O)c2ccccc12 (centres unmarked) [2,2-[9,10-Anthracenediylbis[methylidyne-1-hydrazinyl-2-ylidene(4,5-dihydro-1H-imidazole-2,1-diyl)-carbonyl]]biscyclohexanecarboxylic Acid]
- Median Survival [7]: 13.5 days
- T/C x 100 % [7]: 123%
- Median Survival [1]: 16 days
- T/C x 100 % [1]: 145%
- Median Survival [4]: 18 days
- T/C x 100 % [4]: 164%

Compound: O=C(c1c(F)c(F)c(F)c(F)c1F)N1CCN=C1N(N=Cc1c2ccccc2c(C=NN(C(=O)c2c(F)c(F)c(F)c(F)c2F)C2=NCCN2C(=O)c2c(F)c(F)c(F)c(F)c2F)c2ccccc12)C(=O)c1c(F)c(F)c(F)c(F)c1F [2,2'-(9,10-Anthracenediyldimethylidyne)bis[1-[4,5-dihydro-1-(pentafluoro-1H-imidazol-2-yl)hydra-zide] of pentafluorobenzoic acid]
- Median Survival [3]: 12 days
- T/C x 100 % [3]: 109%

Compound: CC(=O)N1CCN=C1N(N=Cc1c2ccccc2c(C=NN(C(C)=O)C2=NCCN2C(C)=O)c2ccccc12)C(C)=O [2,2'-(9,10-Anthracenediyldimethylidyne)bis[1-(1-acetyl-4,5-dihydro-1H-imidazol-2-yl)hydrazide] of acetic acid]
- Median Survival [1]: 10.5 days
- T/C x 100 % [1]: 105%
- Median Survival [2]: 10.5 days
- T/C x 100 % [2]: 105%
- Median Survival [5]: 11 days
- T/C x 100 % [5]: 110%

Compound: O=C(O)CCCC(=O)N1CCN=C1NN=Cc1c2ccccc2c(C=NNC2=NCCN2C(=O)CCCC(=O)O)c2ccccc12 [2,2-[9,10-Anthracenedlylbis(methylidyne-1-hydrazinyl-2-ylidene)]bis[4,5-dihydro-delta-oxo-1H-imidazole-1-pentanoic Acid]]
- Median Survival [6]: 15.5 days
- T/C x 100 % [6]: 141%
- Median Survival [1]: 18 days
- T/C x 100 % [1]: 164%
- Median Survival [2]: 19 days
- T/C x 100 % [2]: 173%
- Median Survival [3]: 23 days
- T/C x 100 % [3]: 209%

Compound: CC(C)(C)CC(=O)N1CCN=C1N(N=Cc1c2ccccc2c(C=NN(C(=O)CC(C)(C)C)C2=NCCN2C(=O)CC(C)(C)C)c2ccccc12)C(=O)CC(C)(C)C [2,2'-(9,10-Anthracenediyldimethylidyne)bis[1-[1-(3,3-dimethyl-1-oxobutyl)-4,5-dihydro-1H-imidazol-2-yl]-hydrazide] of 3,3-dimethylbutanoic acid]
- Median Survival [5]: 12 days
- T/C x 100 % [5]: 109%
- Median Survival [3]: 13 days
- T/C x 100 % [3]: 118%

Compound: CCCC(=O)N1CCN=C1N(N=Cc1c2ccccc2c(C=NN(C(=O)CCC)C2=NCCN2C(=O)CCC)c2ccccc12)C(=O)CCC [2,2'-(9,10-Anthracenediyldimethylidyne)bis[1-[4,5-dihydro-1-(1-oxobutyl)-1H-imidazol-2-yl]hydra-zide] of butanoic acid]
- Median Survival [3]: 11.5 days
- T/C x 100 % [3]: 105%

Compound: N#Cc1ccc(C(=O)N2CCN=C2N(N=Cc2c3ccccc3c(C=NN(C(=O)c3ccc(C#N)cc3)C3=NCCN3C(=O)c3ccc(C#N)cc3)c3ccccc23)C(=O)c2ccc(C#N)cc2)cc1 [2,2'-(9,10-Anthracenediyldimethylidyne)bis[1-[1-(4-cyanobenzoyl)-4,5-dihydro-1H-imidazol-2-yl] hydrazide] of 4-cyanobenzoic acid]
- Median Survival [4]: 12 days
- T/C x 100 % [4]: 109%
- Median Survival [2]: 12.5 days
- T/C x 100 % [2]: 114%
- Median Survival [5]: 14.5 days
- T/C x 100 % [5]: 132%
- Median Survival [3]: 14.5 days
- T/C x 100 % [3]: 132%

Compound: Cc1ccc(S(=O)(=O)N2CCN=C2NN=Cc2c3ccccc3c(C=NNC3=NCCN3S(=O)(=O)c3ccc(C)cc3)c3ccccc23)cc1 [2,2-[9,10-Anthracenediylbis(methylidyne-1-hydrazinyl-2-ylidene)]bis[4,5-dihydro-1-[(4-methylphenyl)sulfonyl]-1H-imidazole]]
- Median Survival [2]: 14 days
- T/C x 100 % [2]: 127%
- Median Survival [3]: 14 days
- T/C x 100 % [3]: 127%

Compound: CCCCCCc1ccc(C(=O)N2CCN=C2N(N=Cc2c3ccccc3c(C=NN(C(=O)c3ccc(CCCCCC)cc3)C3=NCCN3C(=O)c3ccc(CCCCCC)cc3)c3ccccc23)C(=O)c2ccc(CCCCCC)cc2)cc1 [2,2'-(9,10-Anthracenediyldimethylidyne)bis[1-[1-(4-hexylbenzoyl)-4,5-dihydro-1H-imidazol-2-yl]hydra-zide] of 4-hexylbenzoic acid]
- Median Survival [3]: 14 days
- T/C x 100 % [3]: 127%

Compound: CC(C)(C)OC(=O)N1CCN=C1NN=Cc1c2ccccc2c(C=NNC2=NCCN2C(=O)OC(C)(C)C)c2ccccc12 [2,2-(9,10-Anthracenediylbis(methylidyne-1-hydrazinyl-2-ylidene)]bis[4,5-dihydro]-1H-imidazole-1-carboxylic Acid], Bis(1,1-dimethylethyl) Ester]
- Median Survival [8]: 17.5 days
- T/C x 100 % [8]: 152%
- Median Survival [4]: 22 days
- T/C x 100 % [4]: 191%
- Median Survival [2]: 31.5 days
- T/C x 100 % [2]: 274%

Compound: CC(=O)N1CCN=C1NN=Cc1c2ccccc2c(C=NNC2=NCCN2C(C)=O)c2ccccc12 [2,2'-[9,10-Anthracenediylbis(methylidyne-1-hydrazinyl-2-ylidene)]bis[1-acetyl-4,5-dihydro-1H-imidazole]
- Median Survival [7]: 10.5 days
- T/C x 100 % [7]: 105%
- Median Survival [1]: 10.5 days
- T/C x 100 % [1]: 105%
- Median Survival [4]: 10.5 days
- T/C x 100 % [4]: 105%
- Median Survival [2]: 11 days
- T/C x 100 % [2]: 110%

Compound: O=C(c1ccco1)N1CCN=C1N(N=Cc1c2ccccc2c(C=NN(C(=O)c2ccco2)C2=NCCN2C(=O)c2ccco2)c2ccccc12)C(=O)c1ccco1 [2,2'-(9,10-Anthracenediyldimethylidyne)bis[1-[1-(2-furanylcarbonyl)-4,5-dihydro-1H-imidazol-2-yl]hydrazide] of 2-furancarboxylic acid]
- Median Survival [3]: 12 days
- T/C x 100 % [3]: 120%
